Assays:
[1] = system: grains, legumes, potatoes, garlic; experiment: Germination / sprouting of grains, legumes and tubers; conditions: for Spoilage Time - Sample: Example 129, Sprouting, Small yellow potatoes, Sachet, 100% relative humidity, control 8 days
Description: (§1) These bags were sealed with a heat sealer.
(§2) The assembly was shaken periodically.

avocado = experiment: Softening / rotten inside (spoiled flesh) of avocado
Description: (§3) Most of the foods changed color or texture.
as §2

[2] = system: green tomato, papaya, banana, mango, peppers, tindora; experiment: Ripening of fruits and vegetables (delayed or expedited); conditions: Ripening, Green tomato, 2 hrs P-E
Procedure: (§4) All studies were conducted at a room temperature of about 25° C. To determine the effectiveness of a shelf-life extender, a control sample which was untreated with any shelf-life extenders, was tested identical to the test samples. […] All studies in those Examples of Tables 1-6 were conducted in closed plastic or glass containers. Containers, such as plastic containers, without or with lids having holes can be used if it is advantageous to let excess moisture escape or to prevent condensation of moisture released by some produce.
(§5) For controlled exposure and a constant supply of a preservative to foods, sachets containing one or more drops of preservatives were used. Sachets were made by placing an appropriate amount of a preservative in a plastic bag containing a piece of paper and heat sealing the bag. The sachet bag materials used were Tyvek® for solid preservative, polyethylene, polyester and high barrier multilayer films were used for liquid preservatives. These bags were sealed with a heat sealer. The sachet was typically applied on one side of the container containing food.
(§6) A piece of paper napkin was taped inside a 100 microns thick polyethylene or polyester Ziploc bag. The size of the bag varied from ˜20 cm×30 cm to ˜60 cm×90 cm depended on the sample with sandwich bags up to gallon bags being exemplary. The paper napkin was wetted with 0.1-0.5 ml of a preservative or a mixture of preservatives. A tray of aluminum, stainless steel or glass containing the foods was placed inside the plastic (polyethylene, polyester and multilayer-laminated) bag and almost closed by locking the Ziploc. Air was blown with an air blower from the unclosed end until the bag was fully blown and then quickly closed tightly by locking the remaining Ziploc. If a preservative was a sublimable solid, it was placed in a petri dish and then placed inside the bag in the tray before blowing air. The exposure time was varied from five minutes to a day depending upon the food. […] The assembly was shaken periodically. After the predetermined time, the tray containing produce was removed from the bag, allowed to de-gas for 10-30 minutes in air and the produce was then placed in an appropriately sized container. Glass and stainless steel containers with lids were also often used.
(§7) A solution of one or more preservatives was prepared in a large (e.g., 2-10 liter) glass beaker or a jar. A sack containing the food was prepared by placing the food in a plastic mesh bag. The sack was placed in the solution of the preservative. A smaller glass beaker containing proper amount of water was place over the package to keep the sack soaked in the solution of the preservative during the treatment. The solution was stirred either with a plastic spatula or with a magnet over a magnetic stirrer. After treatment, the mesh sack was removed, the produce was washed in a tray with running water, strained and air dried at 30° C. in an air blowing oven for about 5-10 minutes, while shaking the tray or turning the food periodically followed by placing the sample in an appropriate container.
The untreated (control sample) and treated food were placed in proper sized plastic containers and the containers were tightly closed.
The following major criteria were used for determining spoilage of foods: growth of fungus, color change, unpleasant odor, wilting, firmness or shriveling, change of state (liquid to solid or vice versa), and sprouting or germination Example 10: Sources of food.

[3] = system: parval, methi, coriander, radish, guar; experiment: Shriveling / wilting / dehydration / becoming wet of produce; conditions: Example 130, Wilting, Coriander, 1 hr P-E, control 11 days
Description: as §3, §2

[4] = General shelf-life extension of foods (spoilage criteria of Example 9); conditions: for Effectiveness for controlling one or more spoilage criteria: variety of foods
Procedure: as §4
(§8) Food exposed to preservatives or by a sachet was placed in typically polystyrene or acrylic containers depending upon the size and number of food items. Glass jars and bottles were also used. The containers were snap-closed or with a lid. The containers were purchased mainly from Amazon or Webstaurant.com store. When needed, plastic containers with holes or without lids were used.
as §5, §6, §7
(§9) The food was placed in mesh trays and sprayed with an aqueous solution (1-10%) of a preservative while shaking the tray or turning the food. The solution was allowed to drain from the tray and the food was air dried in an air blowing oven at 30° C. for about 5-10 minutes, while shaking the tray or turning food periodically followed by placing the sample in an appropriate container.

cut lilies = experiment: Keeping cut flowers longer (browning of petals); conditions: Example 118, 0.01% solution, control <12 days
Description: Other preservative tested with flowers include: cyclohexanone, 2-cyclohexen-1-one, 1-methyl-1-cyclopentene, 3-methoxyphenylboronic acid, 3-chlorophenylboronic acid, benzyl ether, choline chloride and hydrogen sulfide. Flowers can be exposed to very low concentration, e.g., in ppm, of vapor of the shelf-life extenders to keep them fresher longer.

fungus = experiment: Fungus growth on treated foods stored in closed containers at room temperature; conditions: for Spoilage Time - Sample: Fungus; for Effectiveness on ginger: pre-exposure and sachet method
Description: as §3
Glass jars and bottles were also used. The containers were snap-closed or with a lid.
as §1, §2

[5] = Color change / browning / yellowing of foods (keeping produce green longer)
Procedure: as §4, §8, §5, §6, §7, §9

[6] = Color loss of meat and fish; conditions: meat and fish
Description: as §3, §1

For `CC(=O)CC(C)=O` [AA, Acetylacetone], the “Spoilage Time - Sample” value [1] was 48+ days, the “Spoilage Time - Sample” value ([1]; listed as acetylacetone) was > 48 days and the “Spoilage Time - Sample” value (avocado; Example 127, Rotten inside, Avocado, 1 hr P-E, control 7 days) was 9 days. The “Spoilage Time - Sample” value (avocado; Example 127, Rotten inside, Avocado, 1 hr P-E, control 7 days, listed as acetylacetone) was > 9 days, the “Spoilage Time - Sample” value (avocado; Example 128, Rotten inside, Haas Avocado, 1 hr P-E, control 11 days) was 11 days and the “Spoilage Time - Sample” value ([2]; Example 126, control 14 days) was 18 days. The “Spoilage Time - Sample” value ([2]; Example 126, control 14 days, listed as acetylacetone) was “significantly delayed”, the “Spoilage Time - Sample” value [3] was 21+ days and the “Spoilage Time - Sample” value ([3]; listed as acetylacetone) was > 21 days. The “Shelf-life of flowery vegetables” value [4] was “extended shelf-life”, the “Effectiveness for controlling one or more spoilage criteria” value [4] was “effective to a greater or lesser extent” and the “Spoilage Time - Sample” value (cut lilies) was 12+ days. The “Spoilage Time - Sample” value (cut lilies; listed as acetylacetone) was > 12 days, the “Spoilage Time - Sample” value (fungus; Example 120, Farmer's cheese, 0.5 hr P-E, control 5 days) was 34 days and the “Spoilage Time - Sample” value (fungus; Example 120, Farmer's cheese, 0.5 hr P-E, control 5 days, listed as Acetylacetone) was “delayed the growth of fungus”. The “Spoilage Time - Sample” value (fungus; Example 122, Raw milk Ricotta cheese, Sachet, control 3 days) was 35 days, the “Spoilage Time - Sample” value (fungus; Example 123, Raspberry, 1 hr P-E, control 5 days) was 31 days and the “Spoilage Time - Sample” value (fungus; Example 124, Yellow pearl onions, Sachet, control 24 days) was 48 days. The Effectiveness on ginger (fungus) was “found effective”, the Fungus growth (fungus; strawberries, raspberries, blackberries and lychee) was “either prevented or significantly delayed” and the “Spoilage Time - Sample” value ([5]; Example 119, Color change, Parsley, 0.25 hr P-E, control 7 days) was 21+ days. For the same compound, the “Spoilage Time - Sample” value ([5]; Example 119, Color change, Parsley, 0.25 hr P-E, control 7 days, listed as acetylacetone) was > 21 days.
With `O=C1CCCCC1` [CY, Cyclohexanone] the “Effectiveness at extending the shelf-life of potatoes” value ([1]; potatoes) was “effective”, the “Spoilage Time - Sample” value (avocado; Example 107, Softening, Florida avocado, 2 hrs P-E, control 2 days) was 2 days and the “Spoilage Time - Sample” value (avocado; Example 108, Softening, Avocado, 2 hrs P-E, control 2 days) was 2 days. For the same compound, the “Spoiling of the flesh with development of fungus” value (avocado; avocados, Examples 77, 78, 107, 108, 113 & 171) was “significantly delayed”, the “Spoilage Time - Sample” value ([2]; Example 106, control 10 days) was 18 days and the “Improvements with meat and fish” value [6] was “demonstrated improvements”. The “Shelf-life of flowery vegetables” value [4] was “extended shelf-life”, the “Shelf-life of shelled and unshelled peanuts” value ([4]; peanuts) was “extended” and the “Effectiveness as shelf-life extender” value ([4]; tofu) was “effective”. For the same compound, the “Effectiveness for controlling one or more spoilage criteria” value [4] was “effective to a greater or lesser extent”, the “Spoilage Time - Sample” value (fungus; Example 93, Raspberry, Sachet, control 5 days) was 9 days and the “Spoilage Time - Sample” value (fungus; Example 95, Blueberry, Sachet, control 5 days) was 67 days. The “Spoilage Time - Sample” value (fungus; Example 96, Farmer's cheese, 0.5 hr P-E, control 5 days) was 34 days, the “Spoilage Time - Sample” value (fungus; Example 96, Farmer's cheese, 0.5 hr P-E, control 5 days, listed as cyclohexanone) was “delayed the growth of fungus” and the “Spoilage Time - Sample” value (fungus; Example 98, Lychee, Sachet, control 3 days) was 31 days. The “Spoilage Time - Sample” value (fungus; Example 99, Cheesecake, Sachet, control 6 days) was 8+ days, the “Spoilage Time - Sample” value (fungus; Example 100, Puri, 16 hrs P-E, control 5 days) was 70+ days and the “Spoilage Time - Sample” value (fungus; Example 101, Rotala, 16 hrs P-E, control 5 days) was 70+ days. For the same compound, the “Spoilage Time - Sample” value (fungus; Example 102, Monterey cheese, Sachet, control 7 days) was 10+ days, the “Spoilage Time - Sample” value (fungus; Example 102, Monterey cheese, Sachet, control 7 days, listed as cyclohexanone) was “either prevented or significantly delayed” and the Fungus growth (fungus; Indian millet bread, Indian wheat bread (roti), cheesecake, sachet or pre-exposure to vapors) was “either prevented or significantly delayed”. The Effectiveness on ginger (fungus) was “found effective”, the “Spoilage Time - Sample” value ([5]; Example 92, Browning, Coriander, Sachet, control 11 days) was 11+ days and the “Spoilage Time - Sample” value ([5]; Example 92, Browning, Coriander, Sachet, control 11 days, listed as cyclohexanone) was “significantly delayed”.

— US12193465B2, “Materials and methods for extending shelf-life of foods” (JP Laboratories, Inc., priority 2021, dated 2025)
